Experimental data taken from patent publication US10780092B2, “Fused pyrazine derivatives useful as soluble guanylate cyclase stimulators” (Merck Sharp & Dohme Corp., priority 2016, dated 2020).

Experiments:
[1] = target: sGC α1/β1 heterodimer (Homo sapiens (Human), UniProt Q02108+Q02153); assay: Cell-based sGC functional assay (CASA assay), cGMP by HTRF; settings: CHO-K1/sGC cells; for Emax: CHO-K1, cGMP production as percentage of maximum of compound A (set to 100%), read-out: % Activation; for EC50: inflection point of cGMP production, 4P fit, read-out: IP
Summary of the method: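 cGMP made in CHO-K1/sGC (human α1/β1) cells is read by HTRF after compound treatment for 1 hr at 37° C, following 30 min at 25° C with or without 1 μM DETA-NO; IBMX 0.5 mM present. Values are % of standard compound maximum; 4P fit.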

[2] = target: human recombinant sGC enzyme (Homo sapiens (Human), UniProt Q02108+Q02153); assay: SEC competition binding assay with [3H] Compound B radioligand; settings: displacement of 1.6 nM [3H] Compound B, 24 h at 37° C.
Summary of the method: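 Competition format: [3H] Compound B (1.6 nM) displaced from human recombinant sGC over 24 h at 37° C. in triethanolamine pH 7.4 buffer with MgCl2, BSA, DTT, 300 μM DETA/NO and 400 μM GTP (1% DMSO). Gel-filtration eluates counted by liquid scintillation; 1 μM Compound B defined non-specific binding; Ki by one-site fit.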

Structure (SMILES) | Emax [1] [%] | EC50 [1] [µM] | Ki [2] [µM]
CC1(c2ccc(Cl)c(O)c2)C(=O)Nc2nc(-c3cn4ncnc4c(Cc4ccc(F)cc4)n3)nc(N)c21 (stereo not drawn) [Example 26-A, 4-Amino-5-(4-chloro-3-hydroxyphenyl)-2-{8-[(4-fluorophenyl)methyl]-[1,2,4]triazolo[1,5-a]pyrazin-6-yl}-5-methyl-5,7-dihydro-6H-pyrrolo[2,3-d]pyrimidin-6-one] | 105 | 0.426 | 0.000276
CC1(c2ccc(O)cc2)C(=O)Nc2nc(-c3cn4ccnc4c(Cc4ccc(F)cc4)n3)nc(N)c21 (stereo not drawn) [Example 43-B, 4-Amino-2-{8-[(4-fluorophenyl)methyl]imidazo[1,2-a]pyrazin-6-yl}-5-(4-hydroxyphenyl)-5-methyl-5,7-dihydro-6H-pyrrolo[2,3-d]pyrimidin-6-one] | 101 | 0.142 | 0.000457
CC1(c2ccc(Cl)c(O)n2)C(=O)Nc2nc(-c3cn4ccnc4c(CC4CCCCC4)n3)nc(N)c21 (stereo not drawn) [Example 49-A, 4-Amino-5-(5-chloro-6-hydroxypyridin-2-yl)-2-(8-(cyclohexylmethyl)imidazo[1,2-a]pyrazin-6-yl)-5-methyl-5,7-dihydro-6H-pyrrolo[2,3-d]pyrimidin-6-one] | 111 | 0.363 | 0.000746
CC1(c2ccc(C(F)(F)F)c(O)c2)C(=O)Nc2nc(-c3cn4ccnc4c(Cc4cc(F)cc(F)c4)n3)nc(N)c21 (stereo not drawn) [Example 46-B, 4-Amino-2-{8-[(3,5-difluorophenyl)methyl]imidazo[1,2-a]pyrazin-6-yl}-5-(3-hydroxy-4-(trifluoromethyl)phenyl)-5-methyl-5,7-dihydro-6H-pyrrolo[2,3-d]pyrimidin-6-one] | 117 | 0.893 | 0.000691
CC1(c2ccc(O)c(Cl)c2)C(=O)Nc2nc(-c3cn4ccnc4c(Cc4cccc(F)c4)n3)nc(N)c21 (stereo not drawn) [Example 35-B, 4-Amino-5-(3-chloro-4-hydroxyphenyl)-2-{8-[(3-fluorophenyl)methyl]imidazo[1,2-a]pyrazin-6-yl}-5-methyl-5,7-dihydro-6H-pyrrolo[2,3-d]pyrimidin-6-one] | 147 | 0.402 | 0.000333
CC1(c2ccc(Cl)c(O)c2)C(=O)Nc2nc(-c3cn4ccnc4c(Cc4cc(F)cc(F)c4)n3)nc(N)c21 (stereo not drawn) [Example 36-A, 4-Amino-5-(4-chloro-3-hydroxyphenyl)-2-{8-[(3,5-difluorophenyl)methyl]imidazo[1,2-a]pyrazin-6-yl}-5-methyl-5,7-dihydro-6H-pyrrolo[2,3-d]pyrimidin-6-one] | 116 | 0.381 | 0.000393
CC1(c2cc(O)c(Cl)c(F)c2)C(=O)Nc2nc(-c3cn4ncnc4c(CC4CCCCC4)n3)nc(N)c21 (stereo not drawn) [Example 21-B, 4-Amino-5-(4-chloro-3-fluoro-5-hydroxyphenyl)-2-(8-(cyclohexylmethyl)-[1,2,4]triazolo[1,5-a]pyrazin-6-yl)-5-methyl-5,7-dihydro-6H-pyrrolo[2,3-d]pyrimidin-6-one] | 143 | 0.095 | 0.000206
CC1(c2ccc(F)c(O)c2)C(=O)Nc2nc(-c3cn4ccnc4c(Cc4ccc(F)cc4)n3)nc(N)c21 (stereo not drawn) [Example 37-B, 4-Amino-5-(4-fluoro-3-hydroxyphenyl)-2-{8-[(4-fluorophenyl)methyl]imidazo[1,2-a]pyrazin-6-yl}-5-methyl-5,7-dihydro-6H-pyrrolo[2,3-d]pyrimidin-6-one] | 117 | 0.069 | 0.000427
CC1(c2ccc(C(F)(F)F)c(O)c2)C(=O)Nc2nc(-c3cn4ccnc4c(Cc4cccc(F)c4)n3)nc(N)c21 (stereo not drawn) [Example 17-B, 4-Amino-2-{8-[(3-fluorophenyl)methyl]imidazo[1,2-a]pyrazin-6-yl}-5-(3-hydroxy-4-(trifluoromethyl)phenyl)-5-methyl-5,7-dihydro-6H-pyrrolo[2,3-d]pyrimidin-6-one] | 117 | 0.482 | 0.000163
CC1(c2ccc(O)cc2)C(=O)Nc2nc(-c3cn4ccnc4c(CCC(F)(F)C(F)(F)F)n3)nc(N)c21 (stereo not drawn) [Example 81-B, 4-Amino-5-(4-hydroxyphenyl)-5-methyl-2-(8-(3,3,4,4,4-pentafluorobutyl)imidazo[1,2-a]pyrazin-6-yl)-5,7-dihydro-6H-pyrrolo[2,3-d]pyrimidin-6-one] | 131 | 0.352 | 0.014
CC1(c2cccc(O)c2)C(=O)Nc2nc(-c3cn4ccnc4c(Cc4ccc(F)cc4)n3)nc(N)c21 (stereo not drawn) [Example 31-B, 4-Amino-2-{8-[(4-fluorophenyl)methyl]imidazo[1,2-a]pyrazin-6-yl}-5-(3-hydroxyphenyl)-5-methyl-5,7-dihydro-6H-pyrrolo[2,3-d]pyrimidin-6-one] | 93 | 0.082 | 0.000274
CC1(c2ccc(O)cc2)C(=O)Nc2nc(-c3cn4ncnc4c(CCC(F)(F)C(F)(F)F)n3)nc(N)c21 (stereo not drawn) [Example 80-B, 4-Amino-5-(4-hydroxyphenyl)-5-methyl-2-(8-(3,3,4,4,4-pentafluorobutyl)-[1,2,4]triazolo[1,5-a]pyrazin-6-yl)-5,7-dihydro-6H-pyrrolo[2,3-d]pyrimidin-6-one] | 70 | 0.019 | 0.00998

Second part, the compound after the results:

Emax [1] [%] | EC50 [1] [µM] | Ki [2] [µM] | Structure (SMILES)
111 | 0.207 | 0.000402 | CC1(c2cccc(O)c2)C(=O)Nc2nc(-c3cn4ccnc4c(CC4CCCCC4)n3)nc(N)c21 (stereo not drawn) [Example 82-B, 4-Amino-2-(8-(cyclohexylmethyl)imidazo[1,2-a]pyrazin-6-yl)-5-(3-hydroxyphenyl)-5-methyl-5,7-dihydro-6H-pyrrolo[2,3-d]pyrimidin-6-one]
109 | 0.222 | 0.00512 | CC1(c2cccc(O)c2)C(=O)Nc2nc(-c3cn4ccnc4c(CCC4CCCCC4)n3)nc(N)c21 (stereo not drawn) [Example 83-B, 4-Amino-2-(8-(2-cyclohexylethyl)imidazo[1,2-a]pyrazin-6-yl)-5-(3-hydroxyphenyl)-5-methyl-5,7-dihydro-6H-pyrrolo[2,3-d]pyrimidin-6-one]
118 | 0.198 | 0.000924 | CC1CCC(Cc2nc(-c3nc(N)c4c(n3)NC(=O)C4(C)c3ccc(Cl)c(O)c3)cn3ccnc23)CC1 (stereo not drawn) [Example 108-AA, 4-Amino-5-(4-chloro-3-hydroxyphenyl)-5-methyl-2-{8-[(4-methylcyclo-hexyl)methyl]imidazo-[1,2-a]pyrazin-6-yl}-5,7-dihydro-6H-pyrrolo-[2,3-d]pyrimidin-6-one]
206 | 0.391 | 0.0011 | CC1(c2ccc(O)c(F)c2)C(=O)Nc2nc(-c3cn4ccnc4c(Cc4cccc(Cl)c4)n3)nc(N)c21 (stereo not drawn) [Example 126-B, 4-Amino-2-{8-[(3-chlorophenyl)methyl]-imidazo[1,2-a]pyrazin-6-yl}-5-(3-fluoro-4-hydroxy-phenyl)-5-methyl-5,7-dihydro-6H-pyrrolo-[2,3-d]pyrimidin-6-one]
101 | 0.816 | 0.000827 | CC1(c2ccc(Cl)c(O)c2)C(=O)Nc2nc(-c3cn4c(N)cnc4c(Cc4cccc(F)c4)n3)nc(N)c21 (stereo not drawn) [Example 140-A, 4-Amino-2-(3-amino-8-[(3-fluorophenyl)methyl]imidazo[1,2-a]pyrazin-6-yl)-5-(4-chloro-3-hydroxyphenyl)-5-methyl-5,7-dihydro-6H-pyrrolo[2,3-d]pyrimidin-6-one]
84 | 1.79 | 0.000155 | Cc1cnc(C2(C)C(=O)Nc3nc(-c4cn5ccnc5c(Cc5cccc(F)c5)n4)nc(N)c32)cc1O (stereo not drawn) [Example 151-A, 4-Amino-2-{8-(3-fluorobenzyl)imidazo[1,2-a]pyrazin-6-yl}-5-(4-hydroxy-5-methylpyridin-2-yl)-5-methyl-5,7-dihydro-6H-pyrrolo[2,3-d]pyrimidin-6-one]
144 | 0.813 | 0.0011 | CC1(c2cc(Cl)c(O)cn2)C(=O)Nc2nc(-c3cn4ccnc4c(Cc4ccccc4F)n3)nc(N)c21 (single isomer, unassigned) [Example 104-B, 4-Amino-5-(4-chloro-5-hydroxypyridin-2-yl)-2-{8-[(2-fluorophenyl)methyl]imidazo[1,2-a]pyrazin-6-yl}-5-methyl-5,7-dihydro-6H-pyrrolo[2,3-d]pyrimidin-6-one]
111 | 0.935 | 0.0028 | CC1(c2ccc(Cl)c(O)c2)C(=O)Nc2nc(-c3cn4ncnc4c(CCCC(F)(F)F)n3)nc(N)c21 (stereo not drawn) [Example 87-A, 4-Amino-5-(4-chloro-3-hydroxyphenyl)-5-methyl-2-(8-(4,4,4-trifluorobutyl)-[1,2,4]triazolo[1,5-a]pyrazin-6-yl)-5,7-dihydro-6H-pyrrolo[2,3-d]pyrimidin-6-one]
122 | 0.166 | 0.00222 | CC1(c2ccc(F)c(O)c2)C(=O)Nc2nc(-c3cn4ccnc4c(CCC4CCCCC4)n3)nc(N)c21 (stereo not drawn) [Example 86-B, 4-Amino-2-(8-(2-cyclohexylethyl)imidazo[1,2-a]pyrazin-6-yl)-5-(4-fluoro-3-hydroxyphenyl)-5-methyl-5,7-dihydro-6H-pyrrolo[2,3-d]pyrimidin-6-one]
